Assay results reported in patent US20210121833A1, “Producing Homogeneous Metastable Solutions from Heterogeneous Non-condensed Solutes And Liquid Solvents” (priority 2019, published 2021).

Experiments:
wounds and lesions = experiment: Baths with oxygen saturated metastable solution, preliminary animal studies; type: in vivo; conditions: at least 30 mg/l concentration of oxygen
[1] = cited from earlier work

## O=O [oxygen]
Wounds and lesions
  benefits of healing: Benefits of healing have been seen
[1]; STP
  fully saturated DO level: 38 mg/L
[1]; atmospheric conditions, partial pressure in air of 0.21 atm
  solubility limit of oxygen: less than 10 mg/l
